Reference: patent US12527755B2, “Formulations containing acetaminophen and sulfoalkyl ether cyclodextrin” (CyDex Pharmaceuticals, Inc., priority 2016, dated 2026)
In brackets after ≈: the same amount, converted by molar mass.

Experiment: physchem
Details: for solubility: pH 7, aqueous buffer, thermodynamic from solid
Method: The acetaminophen solubility was measured at 25° C. and 5° C.

- solubility (5 °C): ~8.86 mg/mL (≈ 58.6 mM)
- solubility (25 °C): ~16 mg/mL (≈ 106 mM)
- CAPTISOL® concentration with which a 10 mg/ml acetaminophen solution can be made (pH 7): less than 0.05 M
SMILES: CC(=O)Nc1ccc(O)cc1 [acetaminophen, N-acetyl-p-aminophenol]
